Consider eleven compounds from US20240124454A1, “TRICYCLIC COMPOUND AND USE THEREOF” (NANJING ZAIMING PHARMACEUTICAL CO., LTD., priority 2020, published 2024).

By IC50 is commonly meant the point on the concentration scale where inhibition reaches its midpoint.

Each structure is given as a SMILES string. Read-outs that look alike come from different tables or passages of the source.

The subject of one series is HCT116 WT cells. Briefly: Cell proliferation inhibition test (Cell-Titer Glo), HCT116 WT. In kind it is cell-based, human. As to conditions: 6 days, read-out: HCT116 WT Antiproliferative activity IC50. The gist of the method:
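Cells seeded at 400 per well, overnight, then exposed 6 days at 37 °C to compound from 10 μM top final concentration in 3-fold dilutions. Viability by ATP luminescence (Cell-Titer Glo), normalised to medium-only and DMSO controls, IC50 by curve fitting.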

The target of another series is hERG potassium channel (Homo sapiens (Human), UniProt Q12809). Briefly: hERG inhibitory activity, manual patch-clamp in HEK293 cells. In kind it is cell-based. As to conditions: HEK293 stably expressing hERG. The protocol: Test Example 8. Assay for hERG Inhibitory Activity of Compound of Present Application
The inhibition of hERG activity by the compounds of the present application was determined using the following method.
I. Experimental materials and instruments • 1. Dialyzed fetal bovine serum Shanghai Bohan Biotechnology Co., Ltd (BS-0005-500) • 2. DMEM culture medium Thermo Fisher Scientific (China) Co., Ltd. (10569) • 3. HEPES Thermo Fisher Scientific (China) Co., Ltd. (15630080) • 4. Trypsin Thermo Fisher Scientific (China) Co., Ltd. (2192509) • 5. Penicillin-streptomycin solution Thermo Fisher Scientific (China) Co., Ltd. (15140-122) • 6. MEM non-essential amino acid solution Thermo Fisher Scientific (China) Co., Ltd. (11140) • 7. Geneticin (G418) Thermo Fisher Scientific (China) Co., Ltd. (11811031) • 8. Blasticidin Thermo Fisher Scientific (China) Co., Ltd. (R21001) • 9. PolylysineThermo Fisher Scientific (China) Co., Ltd. (P4832) • 10. Dofetilide Beijing Express Technology Co., Ltd. (D525700) • 11. Doxycycline Sigma-Aldrich (Shanghai) Trading Co., Ltd. (D9891) • 12. Carbon dioxide incubator Thermo Fisher Scientific (China) Co., Ltd. (371) • 13. Puller Sutter Company, U.S. (P-97) • 14. Micromanipulator Siskiyou Company, U.S. (MC1000e) • 15. Micromanipulator Sutter Company, U.S. (ROE-200; MP285) • 16. Amplifier HEKA Company, Germany (EPC10) • 17. Microscope Olympus (China) Co., Ltd. (IX51/71/73) • 18. Perfusion system ALA Company, U.S. (VM8 gravity administration system)
II. Culture of cell lines and cells
HEK293 cells (Cat. No: K1236) stably expressing hERG ion channel were purchased from Invitrogen. The cells were cultured in a culture medium containing 85% DMEM, 10% dialyzed fetal bovine serum, 0.1 mM non-essential amino acid solution, 100 U/mL penicillin-streptomycin solution, 25 mM HEPES, 5 μg/mL blasticidin, and 400 μg/mL geneticin. When the cell density increased to 40-80% of the bottom area of the culture dish, the cells were digested with trypsin and subcultured thrice every week. Before the experiment, the cells were cultured at a density of 5×10^5 in 6-cm culture dishes, induced for 48 h with 1 μg/mL doxycycline, and then digested and inoculated on a slide for the subsequent manual patch-clamp experiment.
III. Preparation of solutions
1) Extracellular fluid: 132 mM sodium chloride, 4 mM potassium chloride, 3 mM calcium chloride, 0.5 mM magnesium chloride, 11.1 mM glucose, and 10 mM HEPES (adjusted to pH 7.35 with sodium hydroxide).
2) Intracellular fluid: 140 mM potassium chloride, 2 mM magnesium chloride, 10 mM EGTA, 5 mM ATP-magnesium salt, and 10 mM HEPES (adjusted to pH 7.35 with potassium hydroxide).
Note: the osmotic pressure of the solutions was controlled at 280-300 mOsmol/kg. The solutions were filtered and stored at 4° C. before use. The ATP-magnesium salt was prepared into a 100 mM stock solution, subpackaged, and stored in a −20° C. refrigerator. On the day of the experiment, a certain amount of the stock solution was added into the intracellular fluid right before use.
1) The slides carrying HEK293 cells in the culture dish were placed in the perfusion chamber of the micromanipulation stage.
2) Appropriate cells were placed in the center of the field of view under an Olympus IX51, IX71, or IX73 inverted microscope. The tip of the glass electrode was found using a 10× objective lens and placed in the center of the field of view. The electrode was then moved down using a micromanipulator while the electrode was slowly brought into proximity to the cell using the coarse adjustment.
3) When the electrode was in close proximity to the cell, the lens was switched to a 40× objective lens for observation. The micromanipulator was used for fine adjustment to make the electrode approach the surface of the cell gradually.
4) Negative pressure was applied to form a seal with a resistance higher than 1 GΩ between the electrode tip and the cell membrane. […]
For orientation: Block of hERG is tested as a sign of cardiac risk.

Sequence of hERG potassium channel (Q12809 whole entry): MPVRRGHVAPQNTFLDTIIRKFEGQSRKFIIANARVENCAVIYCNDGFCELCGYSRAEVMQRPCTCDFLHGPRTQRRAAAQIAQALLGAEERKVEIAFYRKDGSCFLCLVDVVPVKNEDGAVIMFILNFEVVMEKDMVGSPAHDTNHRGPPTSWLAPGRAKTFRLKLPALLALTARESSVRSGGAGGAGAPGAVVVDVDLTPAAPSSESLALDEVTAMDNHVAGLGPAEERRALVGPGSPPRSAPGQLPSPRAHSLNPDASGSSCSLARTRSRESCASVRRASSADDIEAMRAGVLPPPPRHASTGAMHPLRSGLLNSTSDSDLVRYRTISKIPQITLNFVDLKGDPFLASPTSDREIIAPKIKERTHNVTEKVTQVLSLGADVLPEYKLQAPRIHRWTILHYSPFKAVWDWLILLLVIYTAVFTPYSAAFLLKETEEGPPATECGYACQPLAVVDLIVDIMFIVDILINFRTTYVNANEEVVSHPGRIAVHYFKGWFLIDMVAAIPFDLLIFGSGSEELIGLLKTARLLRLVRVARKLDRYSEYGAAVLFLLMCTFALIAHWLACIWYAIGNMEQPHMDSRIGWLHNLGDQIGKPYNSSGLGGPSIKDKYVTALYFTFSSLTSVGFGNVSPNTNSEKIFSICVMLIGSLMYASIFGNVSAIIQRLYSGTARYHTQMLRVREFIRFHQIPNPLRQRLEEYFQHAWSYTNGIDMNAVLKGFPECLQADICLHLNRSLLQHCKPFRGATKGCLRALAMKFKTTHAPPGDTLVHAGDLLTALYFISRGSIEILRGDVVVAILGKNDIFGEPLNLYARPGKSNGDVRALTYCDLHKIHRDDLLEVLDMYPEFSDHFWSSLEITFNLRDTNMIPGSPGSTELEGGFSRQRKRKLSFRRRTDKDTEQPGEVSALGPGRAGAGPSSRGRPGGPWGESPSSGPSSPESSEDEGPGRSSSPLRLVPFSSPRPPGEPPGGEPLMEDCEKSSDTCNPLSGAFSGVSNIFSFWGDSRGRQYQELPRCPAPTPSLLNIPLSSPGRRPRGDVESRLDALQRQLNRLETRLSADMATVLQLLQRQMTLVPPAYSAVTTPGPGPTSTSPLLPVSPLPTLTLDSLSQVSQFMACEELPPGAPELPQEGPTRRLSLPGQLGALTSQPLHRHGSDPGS

In the case of `Cc1ncccc1-n1c(=O)c2ncn(C)c2c2ccc(C(F)(F)F)nc21` (atropisomer, axis not shown) [Compound 20, 1-methyl-5-(2-methylpyridin-3-yl)-7-(trifluoromethyl)-1,5-dihydro-4H-imidazo[4,5-c][1,8]naphthyridin-4-one], the IC50 with HCT116 WT cells (Homo sapiens, HCT-116, 144 h) is 0.474 µM; at hERG potassium channel, above 0.03 µM.

On to `Cn1cnc2c(=O)n(-c3cccc(F)c3Cl)c3nc(C(F)(F)F)ccc3c21` (atropisomer, axis not shown) [Compound 25, 5-(2-chloro-3-fluorophenyl)-1-methyl-7-(trifluoromethyl)-1,5-dihydro-4H-imidazo[4,5-c][1,8]naphthyridin-4-one], for which the IC50 with HCT116 WT cells (Homo sapiens, HCT-116, 144 h) is 0.663 µM; on hERG potassium channel it was above 0.03 µM.

Turning to `Cn1cnc2c(=O)n(-c3cccc(F)c3Cl)c3nc(C(F)(F)F)ccc3c21` (single isomer, unassigned) [Compound 25-P2, 5-(2-chloro-3-fluorophenyl)-1-methyl-7-(trifluoromethyl)-1,5-dihydro-4H-imidazo[4,5-c][1,8]naphthyridin-4-one], the IC50 in the series with HCT116 WT cells (Homo sapiens, HCT-116, 144 h) was 0.384 µM; against hERG potassium channel, above 0.03 µM.

As for `Cn1cnc2c(=O)n(-c3cccnc3C(F)(F)F)c3nc(C(F)(F)F)ccc3c21` (single isomer, unassigned) [Compound 41-P2, 1-methyl-7-(trifluoromethyl)-5-(2-(trifluoromethyl)pyridin-3-yl)-1,5-dihydro-4H-imidazo[4,5-c][1,8]naphthyridin-4-one], the IC50 was 3.82 µM in the series with HCT116 WT cells (Homo sapiens, HCT-116, 144 h) and above 0.03 µM on hERG potassium channel.

As for `Cn1cnc2c(=O)n(-c3cccnc3C3CC3)c3nc(C(F)(F)F)ccc3c21` (single isomer, unassigned) [Compound 42-P2, 5-(2-cyclopropylpyridin-3-yl)-1-methyl-7-(trifluoromethyl)-1,5-dihydro-4H-imidazo[4,5-c][1,8]naphthyridin-4-one], the half-inhibitory concentration (IC50) in the series with HCT116 WT cells (Homo sapiens, HCT-116, 144 h) is 1.32 µM; at hERG potassium channel, above 0.03 µM.

With `Cn1cnc2c(=O)n(-c3cccnc3C3CC3)c3cc(C(F)(F)F)ccc3c21` (single isomer, unassigned) [Compound 48-P2, 5-(2-cyclopropylpyridin-3-yl)-1-methyl-7-(trifluoromethyl)-1,5-dihydro-4H-imidazo[4,5-c]quinolin-4-one], the IC50 in the series with HCT116 WT cells (Homo sapiens, HCT-116, 144 h) is above 10 µM; on hERG potassium channel, above 0.03 µM.

Regarding `Cn1cnc2c(=O)n(-c3cccnc3C3CC3)c3cc(Cl)ccc3c21` (single isomer, unassigned) [Compound 49-P2, 7-chloro-5-(2-cyclopropylpyridin-3-yl)-1-methyl-1,5-dihydro-4H-imidazo[4,5-c]quinolin-4-one], the 50% inhibitory concentration (IC50) in the series with HCT116 WT cells (Homo sapiens, HCT-116, 144 h) is 0.488 µM; at hERG potassium channel, above 0.03 µM.

For `O=c1c2ncoc2c2ccc(C(F)(F)F)nc2n1-c1cccnc1C1CC1` (single isomer, unassigned) [Compound 81-P2, 5-(2-cyclopropylpyridin-3-yl)-7-(trifluoromethyl)oxazolo[4,5-c][1,8]naphthyridin-4(5H)-one], the IC50 in the series with HCT116 WT cells (Homo sapiens, HCT-116, 144 h) was 1.34 µM; on hERG potassium channel, above 0.03 µM.

For `Cn1cnc2c(=O)n(-c3cccc(F)c3Cl)c3cc(Cl)ccc3c21` [Compound 39, 7-chloro-5-(2-chloro-3-fluorophenyl)-1-methyl-1,5-dihydro-4H-imidazo[4,5-c]quinolin-4-one], the IC50 was 0.626 µM in the series on HCT116 WT cells and above 0.03 µM against hERG potassium channel.

`Cc1ncccc1-n1c(=O)c2ncoc2c2ccc(C(F)(F)F)nc21` [Compound 40, 5-(2-methylpyridin-3-yl)-7-(trifluoromethyl)oxazolo[4,5-c][1,8]naphthyridin-4(5H)-one]: the IC50 was 0.414 µM with HCT116 WT cells (Homo sapiens, HCT-116, 144 h) and above 0.03 µM against hERG potassium channel.

`Cc1ncccc1-n1c(=O)c2ncn(C)c2c2ccc(C(F)(F)F)cc21` [Compound 45, 1-methyl-5-(2-methylpyridin-3-yl)-7-(trifluoromethyl)-1,5-dihydro-4H-imidazo[4,5-c]quinolin-4-one]: the IC50 with HCT116 WT cells (Homo sapiens, HCT-116, 144 h) was 0.902 µM; against hERG potassium channel it was above 0.03 µM.
